In patent US10093630B2, “Pyrazole compounds and methods of making and using same” (ABIDE THERAPEUTICS, INC., priority 2014, dated 2018) one finds inhibition and IC50 data, which are given here for 14 compounds.

What is called inhibition is the drop in the measured response relative to a control, in per cent. As a reminder, the IC50 is the midpoint of a concentration-inhibition curve.

Common to all, as to assay: In vitro competitive activity-based protein profiling (gel-based, FP-Rh or HT-01 probe)
Holding throughout (format): biochemical

The target in experiment [1] is T1, FAAH (Mus musculus, UniProt O08914).
T1 construct: Proteomes (mouse brain membrane fraction or cell lysates); from tissue; host or cells: mouse brain membrane fraction (or cell lysates, not specified)
T1 sequence (O08914 1-579): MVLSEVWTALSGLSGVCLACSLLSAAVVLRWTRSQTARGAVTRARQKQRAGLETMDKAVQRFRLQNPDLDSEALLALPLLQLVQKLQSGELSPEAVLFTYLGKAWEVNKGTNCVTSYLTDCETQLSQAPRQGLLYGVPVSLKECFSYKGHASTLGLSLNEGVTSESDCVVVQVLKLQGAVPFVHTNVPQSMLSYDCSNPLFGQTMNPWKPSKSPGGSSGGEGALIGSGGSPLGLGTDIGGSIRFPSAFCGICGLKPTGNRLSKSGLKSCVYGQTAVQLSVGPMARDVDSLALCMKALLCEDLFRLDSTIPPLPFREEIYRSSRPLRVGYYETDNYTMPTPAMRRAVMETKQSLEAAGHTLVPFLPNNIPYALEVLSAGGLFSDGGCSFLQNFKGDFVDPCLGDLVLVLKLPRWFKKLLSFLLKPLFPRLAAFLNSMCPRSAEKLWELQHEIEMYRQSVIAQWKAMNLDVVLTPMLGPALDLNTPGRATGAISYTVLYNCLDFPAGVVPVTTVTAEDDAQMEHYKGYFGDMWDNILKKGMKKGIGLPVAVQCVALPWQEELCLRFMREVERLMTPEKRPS
The conditions noted are these: for inhibition at 1 µM: 1 μM inhibitor, read-out: % Inhibition at 1 μM, B = FAAH; for inhibition at 10 µM: 10 μM inhibitor, read-out: % Inhibition at 10 μM, B = FAAH. Summed up: (§1)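 Steps: inhibitor dilutions + proteome (1.0 mg/mL), 30 min, 37° C; add FP-Rh or HT-01 (50 μM DMSO stock), 30 min, 37° C; quench in SDS buffer; SDS-PAGE; gel imaging; band densitometry.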

For experiment [2], the target named is T2, MAGL (Mus musculus, UniProt O35678).
T2 construct: Proteomes (mouse brain membrane fraction or cell lysates); from tissue; host or cells: mouse brain membrane fraction (or cell lysates, not specified)
T2 sequence (O35678 1-303): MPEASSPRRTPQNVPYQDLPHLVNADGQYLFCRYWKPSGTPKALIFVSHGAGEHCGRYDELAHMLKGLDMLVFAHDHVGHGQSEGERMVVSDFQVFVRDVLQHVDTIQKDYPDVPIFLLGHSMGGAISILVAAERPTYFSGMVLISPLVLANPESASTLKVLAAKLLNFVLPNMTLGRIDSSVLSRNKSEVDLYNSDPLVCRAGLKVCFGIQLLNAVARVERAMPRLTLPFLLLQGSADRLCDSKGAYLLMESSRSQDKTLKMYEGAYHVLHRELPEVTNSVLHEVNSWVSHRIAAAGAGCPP
The note with it: for inhibition at 1 µM: 1 μM inhibitor; for inhibition at 10 µM: 10 μM inhibitor. Summed up:
as §1

In experiment [3] the target is T3, ABHD6 (Mus musculus, UniProt Q8R2Y0).
T3 construct: Proteomes (mouse brain membrane fraction or cell lysates); from tissue; host or cells: mouse brain membrane fraction (or cell lysates, not specified)
T3 sequence (Q8R2Y0 1-336): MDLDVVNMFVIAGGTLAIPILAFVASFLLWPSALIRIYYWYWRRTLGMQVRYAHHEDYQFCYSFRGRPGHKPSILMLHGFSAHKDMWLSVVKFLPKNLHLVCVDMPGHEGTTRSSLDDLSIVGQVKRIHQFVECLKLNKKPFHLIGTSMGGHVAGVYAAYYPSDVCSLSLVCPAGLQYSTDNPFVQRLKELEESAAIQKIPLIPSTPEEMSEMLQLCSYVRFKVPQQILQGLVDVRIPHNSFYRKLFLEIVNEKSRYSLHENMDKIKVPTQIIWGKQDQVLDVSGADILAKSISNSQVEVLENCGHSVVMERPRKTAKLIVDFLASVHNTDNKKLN
The conditions noted are these: for inhibition at 1 µM: 1 μM inhibitor, read-out: % Inhibition at 1 μM, C = ABHD6; for inhibition at 10 µM: 10 μM inhibitor, read-out: % Inhibition at 10 μM, C = ABHD6. In short, it runs like this:
as §1

In experiment [4] the target is T4, PLA2G7 (Mus musculus, UniProt Q60963).
T4 construct: Proteomes (mouse brain membrane fraction or cell lysates); from tissue; host or cells: mouse brain membrane fraction (or cell lysates, not specified)
T4 sequence (Q60963 22-440): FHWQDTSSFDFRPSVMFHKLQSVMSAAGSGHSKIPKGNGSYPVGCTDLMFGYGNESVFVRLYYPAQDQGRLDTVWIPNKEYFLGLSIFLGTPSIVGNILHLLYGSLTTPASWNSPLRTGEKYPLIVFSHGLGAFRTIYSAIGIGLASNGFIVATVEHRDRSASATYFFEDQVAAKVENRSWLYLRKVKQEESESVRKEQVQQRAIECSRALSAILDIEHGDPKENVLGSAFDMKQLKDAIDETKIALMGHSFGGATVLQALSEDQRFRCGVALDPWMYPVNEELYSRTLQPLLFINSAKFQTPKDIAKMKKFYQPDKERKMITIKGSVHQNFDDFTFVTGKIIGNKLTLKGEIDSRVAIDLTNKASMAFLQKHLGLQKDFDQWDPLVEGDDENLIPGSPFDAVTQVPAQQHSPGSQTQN
The note with it: for inhibition at 1 µM: 1 μM inhibitor, read-out: % Inhibition at 1 μM, D = PLA2G7; for inhibition at 10 µM: 10 μM inhibitor, read-out: % Inhibition at 10 μM, D = PLA2G7. Summed up: as §1

Bounds are passed on as bounds.

Regarding `O=C(c1ccccc1)N1CCCN(C(=O)n2cc(C(F)(F)F)cn2)CC1` [Example 158, (4-Benzoyl-1,4-diazepan-1-yl)(4-(trifluoromethyl)-1H-pyrazol-1-yl)methanone], the inhibition at 1 µM in experiment [1], in experiment [2], in experiment [3] and in experiment [4] was above 75% throughout. Besides, the inhibition at 10 µM in experiment [1], in experiment [2], in experiment [3] and in experiment [4] was above 75% in each case. Besides, the IC50 in experiment [1] (mouse brain membrane fraction or cell lysates, 30 min preincubation at 37° C., read-out: Mouse (IC50 value, nM) FAAH) was above 1000 nM; in experiment [2] (mouse brain membrane fraction or cell lysates, 30 min preincubation at 37° C., read-out: Mouse (IC50 value, nM) MAGL), above 1000 nM; in experiment [3] (mouse brain membrane fraction or cell lysates, 30 min preincubation at 37° C., read-out: Mouse (IC50 value, nM) ABHD6), above 1000 nM; in experiment [4] (mouse brain membrane fraction or cell lysates, 30 min preincubation at 37° C.) it was above 1000 nM.
Turning to `CC(=O)N(C)CCN(C)C(=O)n1cc(C(F)(F)F)cn1` [Example 159, N-Methyl-N-(2-(N-methylacetamido)ethyl)-4-(trifluoromethyl)-1H-pyrazole-1-carboxamide], the inhibition at 1 µM in experiment [1], in experiment [2], in experiment [3] and in experiment [4] was below 25% in each case. Further, the inhibition at 10 µM in experiment [1] is 25 to 75%; in experiment [2], below 25%; in experiment [3], above 75%; in experiment [4], above 75%.
`CN(CCN(C)C(=O)n1cc(C(F)(F)F)cn1)C(=O)c1ccccc1` [Example 160, N-methyl-N-(2-(N-methylbenzamido)ethyl)-4-(trifluoromethyl)-1H-pyrazole-1-carboxamide]: the inhibition at 1 µM in experiment [1] is above 75%; in experiment [2], below 25%; in experiment [3], below 25%; in experiment [4] it was above 75%. For the same compound, the inhibition at 10 µM in experiment [1], in experiment [2], in experiment [3] and in experiment [4] was above 75% each time.
For the compound `CC(=O)N1CCN(C(=O)n2cc(C)cn2)CC1` [Example 161, 1-(4-(4-Methyl-1H-pyrazole-1-carbonyl)piperazin-1-yl)ethanone], the inhibition at 1 µM in experiment [1], in experiment [2], in experiment [3] and in experiment [4] was below 25% in each case. Also, the inhibition at 10 µM was below 25% in experiment [1], below 25% in experiment [2], below 25% in experiment [3] and above 75% in experiment [4].
In the case of `Cc1cnn(C(=O)N2CCN(S(C)(=O)=O)CC2)c1` [Example 162, (4-Methyl-1H-pyrazol-1-yl)(4-(methylsulfonyl)piperazin-1-yl)methanone], the inhibition at 1 µM in experiment [1], in experiment [2], in experiment [3] and in experiment [4] was below 25% in each case. In addition, the inhibition at 10 µM in experiment [1] is below 25%; in experiment [2] it was below 25%; in experiment [3], 25 to 75%; in experiment [4] it was above 75%.
Turning to `Cc1cnn(C(=O)N2CCN(C)CC2)c1` [Example 163, (4-Methyl-1H-pyrazol-1-yl)(4-methylpiperazin-1-yl)methanone], the inhibition at 1 µM in experiment [1], in experiment [2], in experiment [3] and in experiment [4] was below 25% in each case. In addition, the inhibition at 10 µM in experiment [1] is below 25%; in experiment [2] it was below 25%; in experiment [3], 25 to 75%; in experiment [4], below 25%.
Turning to `Cc1cnn(C(=O)N2CCN(C(=O)c3ccccc3)CC2)c1` [Example 164, (4-Benzoylpiperazin-1-yl)(4-methyl-1H-pyrazol-1-yl)methanone], the inhibition at 1 µM in experiment [1], in experiment [2], in experiment [3] and in experiment [4] was below 25% throughout. Further, the inhibition at 10 µM in experiment [1] was below 25%; in experiment [2] it was 25 to 75%; in experiment [3], below 25%; in experiment [4], above 75%.
Take `CC(=O)N1CCCN(C(=O)n2cc(C)cn2)CC1` [Example 165, 1-(4-(4-Methyl-1H-pyrazole-1-carbonyl)-1,4-diazepan-1-yl)ethanone]: the inhibition at 10 µM was 25 to 75% in experiment [1], below 25% in experiment [2], below 25% in experiment [3] and below 25% in experiment [4].
As to `Cc1cnn(C(=O)N2CCCN(S(C)(=O)=O)CC2)c1` [Example 166, (4-Methyl-1H-pyrazol-1-yl)(4-(methylsulfonyl)-1,4-diazepan-1-yl)methanone], the inhibition at 10 µM in experiment [1], in experiment [2], in experiment [3] and in experiment [4] was below 25% each time.
As to `Cc1cnn(C(=O)N2CCCN(C)CC2)c1` [Example 167, (4-Methyl-1,4-diazepan-1-yl)(4-methyl-1H-pyrazol-1-yl)methanone], the inhibition at 10 µM in experiment [1], in experiment [2], in experiment [3] and in experiment [4] was below 25% each time.
Take `Cc1cnn(C(=O)N2CCCN(Cc3ccccc3)CC2)c1` [Example 168, (4-Benzyl-1,4-diazepan-1-yl)(4-methyl-1H-pyrazol-1-yl)methanone]: the inhibition at 10 µM in experiment [1], in experiment [2], in experiment [3] and in experiment [4] was below 25% in each case.
Turning to `Cc1cnn(C(=O)N2CCCN(C(=O)c3ccccc3)CC2)c1` [Example 169, (4-Benzoyl-1,4-diazepan-1-yl)(4-methyl-1H-pyrazol-1-yl)methanone], the inhibition at 10 µM is below 25% in experiment [1], 25 to 75% in experiment [2], 25 to 75% in experiment [3] and below 25% in experiment [4].
As for `CC(=O)N(C)CCN(C)C(=O)n1cc(C)cn1` [Example 170, N,4-Dimethyl-N-(2-(N-methylacetamido)ethyl)-1H-pyrazole-1-carboxamide], the inhibition at 10 µM in experiment [1], in experiment [2], in experiment [3] and in experiment [4] was below 25% throughout.
Turning to `Cc1cnn(C(=O)N(C)CCN(C)Cc2ccccc2)c1` [Example 171, N-(2-(Benzyl(methyl)amino)ethyl)-N,4-dimethyl-1H-pyrazole-1-carboxamide], the inhibition at 10 µM in experiment [1], in experiment [2], in experiment [3] and in experiment [4] was below 25% throughout.
